In publication PMC9034232 (RSC Advances, 2021) one finds IC50 and CC50 data, which are given here for three compounds.

The test system of one data set is influenza A/H1N1/WSN/33 virus. Kind of data set: Anti-IAV activity assay. Type of data set: cell-based. The settings on record: 24 h, read-out: IC50 (anti-IAV activity).
One may read the IC50 as the midpoint of a concentration-inhibition curve. For the compound `Cc1cc(=O)c2c(o1)C[C@H](O)C[C@H]2O` [Compound 9, (5R,7R)-5,7-dihydroxy-2-methyl-5,6,7,8-tetrahydro-4H-chromen-4-one], the IC50 is 16.1 µM.
On the same count and under the same terms, for `NC(=O)c1ncn([C@@H]2O[C@H](CO)[C@@H](O)[C@H]2O)n1` [Ribavirin, reference compound] the value was 21.7 µM; for `Cc1cc(=O)c2c(o1)C[C@@H](O)C[C@H]2O` [Compound 11, (5R,7S)-5,7-dihydroxy-2-methyl-5,6,7,8-tetrahydro-4H-chromen-4-one], 9 µM.

Tested on in another data set: not listed separately
Kind of data set: in vitro. The settings on record: human.
Regarding `Cc1cc(=O)c2c(o1)C[C@H](O)C[C@H]2O` [Compound 9, (5R,7R)-5,7-dihydroxy-2-methyl-5,6,7,8-tetrahydro-4H-chromen-4-one], the CC50 was over 100 µM.
Still for that read-out and setting: with `NC(=O)c1ncn([C@@H]2O[C@H](CO)[C@@H](O)[C@H]2O)n1` [Ribavirin, reference compound] the figure was over 100 µM.
`Cc1cc(=O)c2c(o1)C[C@@H](O)C[C@H]2O` [Compound 11, (5R,7S)-5,7-dihydroxy-2-methyl-5,6,7,8-tetrahydro-4H-chromen-4-one] registered a CC50 of over 100 µM.
